{"source": "patent US20050153947A1", "about": "“Methods and reagents for the treatment of diseases and disorders associated with increased levels of proinflammatory cytokines” (priority 2002, published 2005)", "key": {"[1]": {"system": "TNFα", "test": "TNFα secretion by stimulated white blood cells, SSRI/corticosteroid combination matrices (Example 4, stimulus not given)", "assay_type": "cell-based", "conditions": "Homo sapiens, read-out: percent inhibition of TNFα secretion; for inhibition at 0.003 µM: prednisolone 0.003 μM; for inhibition at 0.006 µM: prednisolone 0.006 μM; for inhibition at 0.05 µM: prednisolone 0.050 μM; for inhibition at 0.1 µM: prednisolone 0.100 μM; for inhibition at 0.2 µM: prednisolone 0.200 μM"}, "[2]": {"system": "TNFα", "test": "TNFα secretion by white blood cells/PBMC stimulated with phorbol 12-myristate 13-acetate and ionomycin (PI), ELISA", "conditions": "concentration (μM)", "experimental": "(§1) Various concentrations of each test compound were added at the time of stimulation. […] After the plate was washed with 0.1% Tween 20/PBS, an HRP-luminescent substrate was added to each well and light intensity measured using a LJL Analyst plate luminometer.\n(§2) Single agents were tested for the ability to suppress secretion of IFNγ, IL-1β, IL-2, and TNFα from stimulated white blood cells, and the percent inhibition of cytokine secretion, relative to untreated stimulated white blood cells, was determined."}, "[3]": {"system": "IL-2", "test": "IL-2 secretion by white blood cells/PBMC stimulated with phorbol 12-myristate 13-acetate and ionomycin (PI), ELISA", "conditions": "for percent inhibition of cytokine secretion, IL-2: concentration (μM)", "experimental": "as §1, §2"}, "[4]": {"system": "TNFα", "test": "TNFα secretion by white blood cells stimulated with lipopolysaccharide (LPS), ELISA", "assay_type": "cell-based, human", "conditions": "concentration (μM)", "experimental": "as §1, §2"}, "[5]": {"system": "IL-1β", "test": "IL-1β secretion by white blood cells stimulated with lipopolysaccharide, ELISA", "assay_type": "cell-based, human", "experimental": "as §1, §2"}, "[6]": {"system": "IL-4", "test": "IL-4 secretion, buffy coat assay supernatant, Cytometric 6 Bead Array", "conditions": "Homo sapiens, read-out: IL-4 % Inhibition", "experimental": "(§3) Analysis of IL-4 and IL-5 cytokine expression was performed using the BD PharMingen Cytometric 6 Bead Array system according to the manufacturer's instructions. Briefly, the supernatant from a buffy coat assay plate wa incubated with the labeled cytokine detection bead cocktail. The samples were then washed, resuspended and read on the BD Pharmingen FACsCalibur flow cytometer. Data was then analyzed using the BD Pharmingen CBA 6 Bead Analysis software."}, "[7]": {"system": "IL-5", "test": "IL-5 secretion, buffy coat assay supernatant, Cytometric 6 Bead Array", "conditions": "Homo sapiens, read-out: IL-5 % Inhibition", "experimental": "as §3"}, "[8]": {"conditions": "citalopram alone, 20.00 to 0.01"}, "[9]": {"conditions": "fluoxetine alone, 29.00 to 0.01"}, "[10]": {"conditions": "Homo sapiens, PBMC, read-out: % Inhibition IL-2 PBMC PI"}, "[11]": {"conditions": "norfluoxetine alone, 45.00 to 0.02"}, "[12]": {"conditions": "paroxetine alone, 27.00 to 0.03"}, "[13]": {"conditions": "fluoxetine concentration (μM), 7.230 to 0.000"}, "[14]": {"conditions": "paroxetine concentration (μM), 6.000 to 0.000"}, "[15]": {"conditions": "R(+) fluoxetine alone, 58 to 0.028"}, "[16]": {"conditions": "S(+) fluoxetine alone, 58 to 0.028"}}, "note": "Like-named read-outs stand apart in the source and are kept apart here.", "data": [{"smiles": "CCCC1O[C@@H]2C[C@H]3[C@@H]4CCC5=CC(=O)C=C[C@]5(C)[C@H]4[C@@H](O)C[C@]3(C)[C@]2(C(=O)CO)O1", "note": "(stereo partly shown) [Budesonide, budesonide]", "values": [{"measurement": "inhibition at 0.0005 µM", "setting": "[1]; budesonide 0.0005 μM, fluoxetine concentration (μM), 0 to 0.580", "value": -2.4, "unit": "%"}, {"measurement": "inhibition at 0.002 µM", "setting": "[1]; budesonide 0.002 μM, fluoxetine concentration (μM), 0 to 0.580", "value": -8.9, "unit": "%"}, {"measurement": "inhibition at 0.009 µM", "setting": "[1]; budesonide 0.009 μM, fluoxetine concentration (μM), 0 to 0.580", "value": 5.3, "unit": "%"}]}, {"smiles": "CN(C)CCCC1(c2ccc(F)cc2)OCc2cc(C#N)ccc21", "note": "(stereo not shown) [Citalopram]", "values": [{"measurement": "percent inhibition of cytokine secretion, TNFα (PI)", "setting": "[2]; [8]", "value": 0, "unit": "%"}, {"measurement": "percent inhibition of cytokine secretion, IL-2", "setting": "[3]; [8]", "value": 0, "unit": "%"}]}, {"smiles": "C[C@@H]1C[C@H]2[C@@H]3CCC4=CC(=O)C=C[C@]4(C)[C@@]3(F)[C@@H](O)C[C@]2(C)[C@@]1(O)C(=O)CO", "note": "[Dexamethasone, dexamethasone]", "values": [{"measurement": "inhibition at 0.0004 µM", "setting": "[1]; dexamethasone 0.0004 μM, paroxetine concentration (μM), 0 to 6.000", "value": 2.1, "unit": "%"}, {"measurement": "inhibition at 0.0006 µM", "setting": "[1]; dexamethasone 0.0006 μM, fluoxetine concentration (μM), 0 to 0.580", "value": -3.8, "unit": "%"}, {"measurement": "inhibition at 0.0008 µM", "setting": "[1]; dexamethasone 0.0008 μM, paroxetine concentration (μM), 0 to 6.000", "value": 6.7, "unit": "%"}]}, {"smiles": "CNCCC(Oc1ccc(C(F)(F)F)cc1)c1ccccc1", "note": "(stereo not shown) [Fluoxetine]", "values": [{"measurement": "percent inhibition of cytokine secretion, TNFα (LPS)", "setting": "[4]; [9]", "value": 0, "unit": "%"}, {"measurement": "percent inhibition of cytokine secretion, IL-1β", "setting": "[5]; fluoxetine alone, concentration (μM), 29.00 to 0.01", "value": 0, "unit": "%"}, {"measurement": "percent inhibition of cytokine secretion, TNFα (PI)", "setting": "[2]; [9]", "value": 6, "unit": "%"}, {"measurement": "inhibition at 10 µM", "setting": "[3]; [10]", "value": 16.1, "unit": "%"}, {"measurement": "inhibition at 21 µM", "setting": "[3]; [10]", "value": 47.4, "unit": "%"}, {"measurement": "inhibition at 42 µM", "setting": "[3]; [10]", "value": 90.3, "unit": "%"}, {"measurement": "inhibition at 84 µM", "setting": "[3]; [10]", "value": 103, "unit": "%"}, {"measurement": "percent inhibition of cytokine secretion, IL-2", "setting": "[3]; [9]", "value": 0, "unit": "%"}]}, {"smiles": "COCCCC/C(=N\\OCCN)c1ccc(C(F)(F)F)cc1", "note": "[Fluvoxamine]", "values": [{"measurement": "percent inhibition of cytokine secretion, TNFα (LPS)", "setting": "[4]; fluvoxamine alone, 63 to 0.031", "value": 0, "unit": "%"}, {"measurement": "percent inhibition of cytokine secretion, IL-1β", "setting": "[5]; fluvoxamine alone, concentration (μM), 63 to 0.031", "value": 0, "unit": "%"}, {"measurement": "percent inhibition of cytokine secretion, TNFα (PI)", "setting": "[2]; fluvoxamine alone, 63 to 0.031", "value": 0, "unit": "%"}, {"measurement": "inhibition at 5 µM", "setting": "[3]; [10]", "value": 3.6, "unit": "%"}, {"measurement": "inhibition at 10 µM", "setting": "[3]; [10]", "value": 8.1, "unit": "%"}, {"measurement": "inhibition at 20 µM", "setting": "[3]; [10]", "value": 22, "unit": "%"}]}, {"smiles": "NCCC(Oc1ccc(C(F)(F)F)cc1)c1ccccc1", "note": "(stereo not shown) [Norfluoxetine, norfluoxetine]", "values": [{"measurement": "percent inhibition of cytokine secretion, TNFα (LPS)", "setting": "[4]; [11]", "value": 0, "unit": "%"}, {"measurement": "percent inhibition of cytokine secretion, IL-1β", "setting": "[5]; norfluoxetine alone, concentration (μM), 45.00 to 0.02", "value": 0, "unit": "%"}, {"measurement": "percent inhibition of cytokine secretion, TNFα (PI)", "setting": "[2]; [11]", "value": 0, "unit": "%"}, {"measurement": "percent inhibition of cytokine secretion, IL-2", "setting": "[3]; [11]", "value": 0, "unit": "%"}]}, {"smiles": "Fc1ccc([C@@H]2CCNC[C@H]2COc2ccc3c(c2)OCO3)cc1", "note": "[Paroxetine]", "values": [{"measurement": "percent inhibition of cytokine secretion, TNFα (LPS)", "setting": "[4]; [12]", "value": 0, "unit": "%"}, {"measurement": "percent inhibition of cytokine secretion, IL-1β", "setting": "[5]; paroxetine alone, concentration (μM) in c4 of the same row, 53.00 to 0.05", "value": 0, "unit": "%"}, {"measurement": "inhibition at 28 µM", "setting": "[6]", "value": 97.1, "unit": "%"}, {"measurement": "inhibition at 28 µM", "setting": "[7]", "value": 97.8, "unit": "%"}, {"measurement": "percent inhibition of cytokine secretion, TNFα (PI)", "setting": "[2]; [12]", "value": 0, "unit": "%"}, {"measurement": "inhibition at 18 µM", "setting": "[3]; [10]", "value": 54.2, "unit": "%"}, {"measurement": "inhibition at 36 µM", "setting": "[3]; [10]", "value": 83.5, "unit": "%"}, {"measurement": "inhibition at 72 µM", "setting": "[3]; [10]", "value": 95.7, "unit": "%"}, {"measurement": "percent inhibition of cytokine secretion, IL-2", "setting": "[3]; [12]", "value": 0, "unit": "%"}]}, {"smiles": "C[C@]12C=CC(=O)C=C1CC[C@@H]1[C@@H]2[C@@H](O)C[C@@]2(C)[C@H]1CC[C@]2(O)C(=O)CO", "note": "[Prednisolone, prednisolone]", "values": [{"measurement": "inhibition at 0.5 µM", "setting": "[1]; Prednisolone 0.500 μM alone", "value": 29.1, "unit": "%"}, {"measurement": "inhibition at 1 µM", "setting": "[1]; Prednisolone 1.0000 μM alone", "value": 34, "unit": "%"}, {"measurement": "inhibition at 0.0008 µM", "setting": "[1]; prednisolone 0.0008 μM, fluoxetine concentration (μM), 7.230 to 0.000", "value": 3.8, "unit": "%"}, {"measurement": "inhibition at 0.003 µM", "setting": "[1]; [13]", "value": 4.4, "unit": "%"}, {"measurement": "inhibition at 0.003 µM", "setting": "[1]; [14]", "value": -0.1, "unit": "%"}, {"measurement": "inhibition at 0.006 µM", "setting": "[1]; [13]", "value": 7, "unit": "%"}, {"measurement": "inhibition at 0.006 µM", "setting": "[1]; [14]", "value": 4.6, "unit": "%"}, {"measurement": "inhibition at 0.05 µM", "setting": "[1]; [13]", "value": 24.3, "unit": "%"}, {"measurement": "inhibition at 0.05 µM", "setting": "[1]; [14]", "value": 23.4, "unit": "%"}, {"measurement": "inhibition at 0.1 µM", "setting": "[1]; [13]", "value": 31.6, "unit": "%"}, {"measurement": "inhibition at 0.1 µM", "setting": "[1]; [14]", "value": 29.4, "unit": "%"}, {"measurement": "inhibition at 0.2 µM", "setting": "[1]; [13]", "value": 39.7, "unit": "%"}, {"measurement": "inhibition at 0.2 µM", "setting": "[1]; [14]", "value": 34.1, "unit": "%"}, {"measurement": "inhibition at 0.4 µM", "setting": "[1]; prednisolone 0.400 μM, paroxetine concentration (μM), 6.000 to 0.000", "value": 36.2, "unit": "%"}, {"measurement": "inhibition at 0.5 µM", "setting": "[1]; prednisolone 0.500 μM, fluoxetine concentration (μM), 0 to 29.00", "value": 39, "unit": "%"}, {"measurement": "inhibition at 0.5 µM", "setting": "[1]; prednisolone 0.500 μM, paroxetine concentration (μM), 0 to 27.00", "value": 35.4, "unit": "%"}, {"measurement": "inhibition at 1 µM", "setting": "[1]; prednisolone 1.0000 μM, fluoxetine concentration (μM), 0 to 29.00", "value": 35.1, "unit": "%"}, {"measurement": "inhibition at 1 µM", "setting": "[1]; prednisolone 1.0000 μM, paroxetine concentration (μM), 0 to 27.00", "value": 38.6, "unit": "%"}, {"measurement": "inhibition at 1 µM", "setting": "[6]", "value": 47.8, "unit": "%"}, {"measurement": "inhibition at 1 µM", "setting": "[7]", "value": 75.5, "unit": "%"}]}, {"smiles": "CNCC[C@@H](Oc1ccc(C(F)(F)F)cc1)c1ccccc1", "note": "[R(+) Fluoxetine]", "values": [{"measurement": "percent inhibition of cytokine secretion, TNFα (LPS)", "setting": "[4]; [15]", "value": 0, "unit": "%"}, {"measurement": "percent inhibition of cytokine secretion, IL-1β", "setting": "[5]; R(+) fluoxetine alone, concentration (μM), 58 to 0.028", "value": 0, "unit": "%"}, {"measurement": "percent inhibition of cytokine secretion, TNFα (PI)", "setting": "[2]; [15]", "value": 0, "unit": "%"}, {"measurement": "percent inhibition of cytokine secretion, IL-2", "setting": "[3]; [15]", "value": 0, "unit": "%"}]}, {"smiles": "CNCC[C@H](Oc1ccc(C(F)(F)F)cc1)c1ccccc1", "note": "[S(+) Fluoxetine]", "values": [{"measurement": "percent inhibition of cytokine secretion, TNFα (LPS)", "setting": "[4]; [16]", "value": 0, "unit": "%"}, {"measurement": "percent inhibition of cytokine secretion, IL-1β", "setting": "[5]; S(+) fluoxetine alone, concentration (μM), 58 to 0.028", "value": 0, "unit": "%"}, {"measurement": "percent inhibition of cytokine secretion, TNFα (PI)", "setting": "[2]; [16]", "value": 0, "unit": "%"}, {"measurement": "percent inhibition of cytokine secretion, IL-2", "setting": "[3]; [16]", "value": 0, "unit": "%"}]}, {"smiles": "COc1ccc(C(CN(C)C)C2(O)CCCCC2)cc1", "note": "(stereo not shown) [Venlafaxine]", "values": [{"measurement": "percent inhibition of cytokine secretion, TNFα (LPS)", "setting": "[4]; venlafaxine alone, 39.83 to 0.02", "value": 3.33, "unit": "%"}]}]}
